Our source for the inhibition values is patent EP0853084B1, “Substituted purine derivatives as vitronectin receptor antagonists” (HOECHST AKTIENGESELLSCHAFT, priority 1996, dated 1998).

In this assay the target is humanen Vitronectinrezeptor (VnR) αvβ3 (Homo sapiens, UniProt P05106+P06756). Nature of the assay: Inhibition of binding of Kistrin to human vitronectin receptor (αvβ3 ELISA test, K/VnR). Conditions: 10 µM test compound, read-out: K/VnR Inhibierung bei 10 µM (in %). The text has this: Als Testmethode, nach der beispielsweise die antagonistische Wirkung der erfindungsgemäßen Verbindungen auf den Vitronectinrezeptor αvβ3 bestimmt werden kann, wird nachfolgend die Inhibierung der Bindung von Kistrin an humanen Vitronectinrezeptor (VnR) beschrieben (αvβ3-ELISA-Test; die Testmethode wird bei der Auflistung der Testergebnisse mit "K/VnR" abgekürzt).
Sequence of humanen Vitronectinrezeptor (VnR) αvβ3 (P06756 31-889 limits assumed): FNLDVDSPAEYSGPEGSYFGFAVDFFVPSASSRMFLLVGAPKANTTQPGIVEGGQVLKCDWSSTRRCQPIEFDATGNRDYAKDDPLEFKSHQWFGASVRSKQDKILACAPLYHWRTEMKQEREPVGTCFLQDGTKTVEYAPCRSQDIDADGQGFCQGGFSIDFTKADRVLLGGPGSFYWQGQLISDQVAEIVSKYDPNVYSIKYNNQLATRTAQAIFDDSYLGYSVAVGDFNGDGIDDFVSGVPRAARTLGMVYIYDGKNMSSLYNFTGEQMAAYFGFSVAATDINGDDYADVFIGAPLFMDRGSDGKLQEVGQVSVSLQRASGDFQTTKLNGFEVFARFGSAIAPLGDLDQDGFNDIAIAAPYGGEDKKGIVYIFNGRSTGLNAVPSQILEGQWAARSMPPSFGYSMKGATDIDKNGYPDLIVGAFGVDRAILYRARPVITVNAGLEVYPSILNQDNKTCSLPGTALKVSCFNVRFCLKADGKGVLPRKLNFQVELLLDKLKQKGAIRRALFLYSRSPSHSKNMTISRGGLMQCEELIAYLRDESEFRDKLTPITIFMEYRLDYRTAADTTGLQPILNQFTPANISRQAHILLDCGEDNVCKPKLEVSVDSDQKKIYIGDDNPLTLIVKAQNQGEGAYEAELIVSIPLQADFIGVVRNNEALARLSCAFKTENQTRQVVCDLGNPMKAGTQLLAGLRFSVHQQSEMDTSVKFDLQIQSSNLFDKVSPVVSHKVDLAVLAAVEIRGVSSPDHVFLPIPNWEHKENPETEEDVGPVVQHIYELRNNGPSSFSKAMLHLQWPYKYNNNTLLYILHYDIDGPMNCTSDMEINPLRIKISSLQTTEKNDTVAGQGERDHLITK
Sequence of humanen Vitronectinrezeptor (VnR) αvβ3 (P06756 891-1048 partner limits assumed): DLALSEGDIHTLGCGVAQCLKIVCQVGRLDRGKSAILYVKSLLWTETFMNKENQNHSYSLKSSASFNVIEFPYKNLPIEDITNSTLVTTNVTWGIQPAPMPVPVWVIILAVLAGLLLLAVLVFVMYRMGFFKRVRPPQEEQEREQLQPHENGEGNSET
Sequence of humanen Vitronectinrezeptor (VnR) αvβ3 (P05106 27-788): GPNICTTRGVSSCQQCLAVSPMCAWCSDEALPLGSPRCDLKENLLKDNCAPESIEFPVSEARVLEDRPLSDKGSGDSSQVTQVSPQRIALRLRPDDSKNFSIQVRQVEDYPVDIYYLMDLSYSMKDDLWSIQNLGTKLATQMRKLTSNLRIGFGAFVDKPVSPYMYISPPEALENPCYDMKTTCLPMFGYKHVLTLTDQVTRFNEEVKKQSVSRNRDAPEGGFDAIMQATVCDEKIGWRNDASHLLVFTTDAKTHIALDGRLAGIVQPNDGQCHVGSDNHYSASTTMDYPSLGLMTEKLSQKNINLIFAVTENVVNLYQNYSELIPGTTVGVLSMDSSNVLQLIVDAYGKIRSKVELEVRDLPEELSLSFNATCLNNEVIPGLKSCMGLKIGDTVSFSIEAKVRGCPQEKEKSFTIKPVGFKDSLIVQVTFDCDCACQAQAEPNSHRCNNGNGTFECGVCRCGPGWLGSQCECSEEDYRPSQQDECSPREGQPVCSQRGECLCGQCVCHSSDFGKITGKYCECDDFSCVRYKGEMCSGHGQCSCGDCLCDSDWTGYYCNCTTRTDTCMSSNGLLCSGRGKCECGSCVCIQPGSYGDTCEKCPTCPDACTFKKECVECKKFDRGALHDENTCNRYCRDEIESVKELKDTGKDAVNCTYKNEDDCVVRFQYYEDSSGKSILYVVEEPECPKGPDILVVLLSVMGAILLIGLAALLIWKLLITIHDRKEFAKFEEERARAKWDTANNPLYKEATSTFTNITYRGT
Kistrin wird nach den Methoden von Dennis et al., wie in Proc. Natl. Acad. Sci. USA 1989, 87, 2471-2475 und PROTEINS: Structure, Function and Genetics 1993, 15, 312-321, beschrieben, gereinigt.
Humaner Vitronectinrezeptor wird aus der menschlichen Plazenta nach der Methode von Pytela et al., Methods Enzymol. 1987, 14.4, 475 gewonnen. Humaner Vitronectinrezeptor αvβ3 kann auch aus einigen Zellinien (zum Beispiel aus 293 Zellen, einer humanen embryonalen Nierenzellinie), die mit DNA Sequenzen für beide Untereinheiten αv und β3 des Vitronectinrezeptors co-transfziert sind, gewonnen werden. Die Untereinheiten wurden mit Octylglycosid extrahiert und anschließend über Concanavalin A, Heparin-Sepharose und S-300 chromatographiert.
Murine monoklonale Antikörper, spezifisch für die β3 Untereinheit des Vitronectinrezeptors, werden nach der Methode von Newman et al., Blood, 1985, 227-232, oder nach einem ähnlichen Verfahren hergestellt. Das Kaninchen Fab 2 anti-Maus Fc Konjugat an Meerrettich-Peroxidase (anti-Maus Fc HRP) wurde von Pel Freeze (Katalog Nr. 715 305-1) bezogen.
Die Fähigkeit von Substanzen die Bindung von Kistrin an den Vitronectinrezeptor zu inhibieren, kann mit einem ELISA-Test ermittelt werden. Zu diesem Zweck werden Nunc 96 well-Mikrotiterplatten mit einer Lösung von Kistrin (0.002 mg/ml) nach der Methode von Dennis et al., wie in PROTEINS: Structure, Function and Genetics 1993, 15, 312-321, beschrieben, belegt. Die Platten werden dann zweimal mit PBS/0.05 % Tween-20 gewaschen und durch Inkubieren (60 min) mit RinderserumAlbumin (BSA, 0.5 %, RIA Güteklasse oder besser) in Tris-HCl (50 mM), NaCl (100 mM), MgCl2 (1 mM), CaCl2 (1 mM), MnCl2 (1 mM), pH 7, geblockt. Man stellt Lösungen von bekannten Inhibitoren und von den Testsubstanzen in Konzentrationen von 2 x 10^-12 bis 2 x 10^-6 mol/l in Assay-Puffer (BSA (0.5 %, RIA-Güteklasse oder besser) in Tris-HCl (50 mM), NaCl (100 mM), MgCl2 (1 mM), CaCl2 (1 mM), MnCl2 (1 mM), pH 7) her. Die geblockten Platten werden entleert, und jeweils 0.025 ml dieser Lösung, die eine definierte Konzentration (2 x 10^-12 bis 2 x 10^-6 mol/l) entweder an einem bekannten Inhibitor oder an einer Testsubstanz enthält, werden in jedes well gegeben. 0.025 ml einer Lösung des Vitronectinrezeptors im Testpuffer (0.03 mg/ml) werden in jedes well der Platte pipettiert und die Platte wird auf einem Schüttler 60-180 min bei Raumtemperatur inkubiert. In der Zwischenzeit wird eine Lösung (6 ml/Platte) eines für die β3-Untereinheit des Vitronectinrezeptors spezifischen murinen monoklonalen Antikörpers im Assay-Puffer (0.0015 mg/ml) hergestellt. Zu dieser Lösung gibt man einen zweiten Kaninchen-Antikörper (0.001 ml Stammlösung/6 ml der murinen monoklonalen anti-β3-Antikörper-Lösung), der ein anti-Maus Fc HRP Antikörper Konjugat darstellt, und dieses Gemisch aus murinem anti-β3 Antikörper und Kaninchen anti-Maus Fc HRP Antikörper Konjugat läßt man während der Zeit der Rezeptor-Inhibitor-Inkubation inkubieren. Die Testplatten werden viermal mit PBS-Lösung, die 0.05 % Tween-20 enthält, gewaschen und man pipettiert jeweils 0.05 ml/well der Antikörpermischung in jedes well der Platte und inkubiert 60-180 min. Die Platte wird viermal mit PBS/0.05 % Tween-20 gewaschen und anschließend mit 0.05 ml/well einer PBS-Lösung, die 0.67 mg/ml o-Phenylendiamin und 0.012 % H2O2 enthält, entwickelt. Alternativ hierzu kann o-Phenylendiamin in einem Puffer (pH 5) eingesetzt werden, der Na3PO4 und Zitronensäure enthält. Die Farbentwicklung wird mit 1 N H2SO4 (0.05 ml/well) gestoppt. […]

Regarding `N=C(N)NCC1CCN(c2ncnc3c2ncn3C[C@H](NC(=O)OCc2ccccc2)C(=O)O)CC1` [Beispiel 26, 2S-Benzyloxycarbonylamino-3-(6-(4-(guanidinomethyl)-piperidin-1-yl)-purin-9-yl)-propionsäure], the inhibition at 10 µM was found to be 91%. The figure for `O=C(N[C@@H](CNc1ncnc2c1ncn2CCCCNC1=NCCN1)C(=O)O)OCc1ccccc1` [Beispiel 18] is 95%; for `N=C(N)NCCCCCn1cnc2c(NC[C@H](NC(=O)OCc3ccccc3)C(=O)O)ncnc21` [Beispiel 14, N^6-(3-(2S-(Benzyloxycarbonylamino)propionsäure))-N^9-(1-(5-guanidinylpentyl))-adenin] it is 84%. The figure for `N=C(N)NCCCCn1cnc2c(NC[C@H](NC(=O)OCc3ccccc3)C(=O)O)ncnc21` [Beispiel 17, N^6-(3-(2S-(Benzyloxycarbonylamino)propionsäure))-N^9-(1-(4-guanidinylbutyl))-adenin] is 92%; for `N=C(N)NCCCNc1ncnc2c1ncn2C[C@H](NC(=O)OCc1ccccc1)C(=O)O` [Beispiel 3, N^6-(1-(3-Guanidinopropyl))-N^9-(3-(2S-(benzyloxycarbonylamino)propionsäure))-adenin] it is 77%; for `NCCCCCn1cnc2c(NC[C@H](NC(=O)OCc3ccccc3)C(=O)O)ncnc21` [Beispiel 14c, N^6-(3-(2S-(Benzyloxycarbonylamino)propionsäure))-N^9-(1-(5-aminopentyl))-adenin] it is 22%. The figure for `N=C(N)NCCCn1cnc2c(NCC[C@H](NC(=O)OCc3ccccc3)C(=O)O)ncnc21` [Beispiel 12, N^6-(4-(2S-(Benzyloxycarbonylamino)buttersäure))-N^9-(1-(3-guanidinylpropyl))-adenin] is 86%. As to `NCCCn1cnc2c(NC[C@H](NC(=O)OCc3ccccc3)C(=O)O)ncnc21` [Beispiel 16b, N^6-(3-(2S-(Benzyloxycarbonylamino)propionsäure))-N^9-(1-(3-aminopropyl))-adenin], the inhibition at 10 µM came to 29%. The figure for `O=C(N[C@@H](Cn1cnc2c(N3CCC(CNC4=NCCN4)CC3)ncnc21)C(=O)O)OCc1ccccc1` [Beispiel 24, 2S-Benzyloxycarbonylamino-3-(6-(4-((4,5-dihydro-1H-imidazol-2-ylamino)-methyl)-piperidin-1-yl)-purin-9-yl)-propionsäure] is 95%; for `O=C(N[C@@H](CCNc1ncnc2c1ncn2CCCNC1=NCCN1)C(=O)O)OCc1ccccc1` [Beispiel 13, N^6-(4-(2S-(Benzyloxycarbonylamino)buttersäure))-N^9-(1-(3-(4,5-dihydro-1H-imidazol-2-ylamino)-propyl))-adenin] it is 92%; for `N=C(N)NCCCn1cnc2c(NC[C@H](NC(=O)OCc3ccccc3)C(=O)O)ncnc21` [Beispiel 16, N^6-(3-(2S-(Benzyloxycarbonylamino)propionsäure))-N^9-(1-(3-guanidinylpropyl))-adenin] it is 85%.

Take `O=C(N[C@@H](CNc1ncnc2c1ncn2CCCCCNC1=NCCN1)C(=O)O)OCc1ccccc1` [Beispiel 15, N^6-(3-(2S-(Benzyloxycarbonylamino)propionsäure))-N^9-(1-(5-(4,5-dihydro-1H-imidazol-2-ylamino)pentyl))-adenin]: the inhibition at 10 µM amounted to 92%. As for `O=C(N[C@@H](Cn1cnc2c(NCCCCNC3=NCCN3)ncnc21)C(=O)O)OCc1ccccc1` [Beispiel 4, N^6-(1-(4-(4,5-Dihydro-1H-imidazol-2-ylamino)butyl))-N^9-(3-(2S-(benzyloxycarbonylamino)propionsäure))-adenin], the inhibition at 10 µM came to 93%. The figure for `O=C(N[C@@H](Cn1cnc2c(N3CCC(C(=O)NC4=NCCCN4)CC3)ncnc21)C(=O)O)OCc1ccccc1` [Beispiel 19, 2S-Benzyloxycarbonylamino-3-(6-(4-(1,4,5,6-tetrahydropyrimidin-2-ylcarbamoyl)-piperdin-1-yl)-purin-9-yl)-propionsäure] is 97%.

With `O=C(N[C@@H](Cn1cnc2c(NCCCCNc3nc4ccccc4[nH]3)ncnc21)C(=O)O)OCc1ccccc1` [Beispiel 23, 3-(6-((4-(Benzimidazol-2-ylamino)-butyl)-amino)-purin-9-yl)-2S-benzyloxycarbonyl-amino-propionsäure], the inhibition at 10 µM came out at 93%.

Turning to `N=C(N)NCCCCCNc1ncnc2c1ncn2C[C@H](NC(=O)OCc1ccccc1)C(=O)O` [Beispiel 1, N^6-(1-(5-Guanidinopentyl))-N^9-(3-(2S-(benzyloxycarbonylamino)propionsäure))-adenin], the inhibition at 10 µM was found to be 75%. The figure for `O=C(N[C@H](Cn1cnc2c(N3CCC(CNC4=NCCN4)CC3)ncnc21)C(=O)O)OCc1ccccc1` [Beispiel 25] is 89%; for `N=C(N)NCCCCNc1ncnc2c1ncn2C[C@H](NC(=O)OCc1ccccc1)C(=O)O` [Beispiel 2, N^6-(1-(4-Guanidinobutyl))-N^9-(3-(2S-(benzyloxycarbonylamino)propionsäure))-adenin] it is 80%.
